Data reported in US10869850B2, “Nitrated-fatty acids modulation of type II diabetes” (University of Pittsburgh—Of the Commonwealth System of …, priority 2007, dated 2020).
“Also recorded” adds a separate entry of the source. Like-named read-outs stand apart in the source and are kept apart here.

Assays:
[1] = analysis of mouse plasma after intravenous administration of nitro oleic acid; type: in vivo
Protocol: In contrast, the plasma levels for the β-oxidation products are highest at around 60 minutes.

WT mice [2] = assay: blood glucose levels in fed WT mice (FIG. 2); type: in vivo, mouse
From the text: Similar results are observed in experiments involving ob/ob mice.

ob/ob mice [3] = assay: blood glucose levels in leptin-deficient diabetic ob/ob mice (FIG. 3); type: in vivo, mouse; conditions: for blood glucose levels: over the course of the study, FIG. 3
From the text: In a related vein, the invention encompasses a method for gauging the therapeutic efficacy of the composition as described above. This method involves obtaining at least two blood samples from a subject at different times during treatment and measuring the level of blood glucose in each sample.

WT mice [4] = assay: insulin sensitivity in WT mice (FIG. 5); type: in vivo, mouse
ob/ob mice [5] = assay: insulin sensitivity in ob/ob mice (FIG. 6); type: in vivo, mouse
ob/ob mice [6] = conditions: mouse, in vivo
WT mice [7] = assay: body weight of WT mice (FIG. 4); conditions: course of the study (25 days)
ob/ob mice [8] = assay: body weight of ob/ob mice (FIG. 4); conditions: entire course of the study
[9] = following intravenous administration of nitro oleic acid

shape of plasma level curve as a function of time [1, 9] | time of peak plasma concentration [1, 9] | Molecule | physiological fate (metabolism in vivo) ([1]; intravenous administration) | effectiveness in maintaining blood glucose levels compared with Rosiglitazone (WT mice [2]; WT mice) | blood glucose level (WT mice [2]; fed WT mice) | blood glucose levels on day 21 versus beginning of the study (ob/ob mice [3]; day 21, FIG. 3) | blood glucose levels (ob/ob mice [3]) | blood glucose levels after administration of insulin (WT mice [4]) | insulin sensitivity (ob/ob mice [5]) | blood glucose levels after administration of insulin (ob/ob mice [5]; FIG. 6) | side-effects of weight gain and fluid retention (ob/ob mice [6]) | body weight (WT mice [7]) | body weight (ob/ob mice [8]) | body weight (ob/ob mice [6])
biphasic | around 5 minutes | 9- or 10-nitro octadecenoic acid [nitro oleic acid] | converted in-vivo, to its saturated analog, or can undergo β-oxidative cleavage | at least as effective as Rosiglitazone | maintains a steady blood glucose level | significantly lower on day 21 than at the beginning of the study | lower blood glucose levels; also recorded: effective in reducing blood glucose levels | initial drop in blood glucose levels followed by an elevation to normal levels | improves insulin sensitivity | substantial decrease in blood glucose levels | without the side-effects of weight gain and fluid retention |  |  | 
 |  | CN(CCOc1ccc(CC2SC(=O)NC2=O)cc1)c1ccccn1 (stereo not drawn) [Rosiglitazone] |  |  |  |  |  |  |  |  |  | do not change over the course of the study | steady increase in body weights | 
 |  | CCCCCCCC/C=C\CCCCCCCC(=O)O [oleic acid, (Z)-octadec-9-enoic acid, reference compound] |  |  |  |  | blood glucose levels increased over the course of the study |  |  |  |  |  |  | steady increase in body weights
